What all share (type): cell-based
Assay [1] has as its system MCF-7 human breast cancer cell line. As to the kind of experiment: Cell viability assay (MTT), MCF-7 breast cancer cells. As to conditions: breast cancer cell (MCF-7), 48 hr treatment, FIG. 4C. How it is done: (§1) FIG. 4 is a graph showing that diDCP-LA-PI and diDCP-LA-PIe induce cell death of (A) human lung cancer cell (Lu65), (B) gastric cancer cell (MKN28), (C) breast cancer cell (MCF-7) in a concentration-dependent manner. The cells were treated with a given concentration of diDCP-LA-PI or diDCP-LA-PIe for 48 hr, and subjected to MTT assay.
MCF-7 human breast cancer cell line was obtained from RIKEN cell bank (Ibaraki, Japan) and cultured in Dulbecco's modified Eagle's medium (DMEM).
(§2) In all cell cultures, the cells were incubated in a medium added with 10% (v/v) heat-inactivated bovine serum, penicillin (final concentration, 100 U/ml) and streptomycin (final concentration, 0.1 mg/ml) in a humid environment under 5% CO2 and 95% air at 37° C.
(§3) The cell viability was evaluated by an established method using 3-(4,5-dimethyl-2-thiazolyl)-2,5-diphenyl-2H-tetrazolium bromide (MTT).

For assay [2], the system named is MKN28 human gastric cancer cell line. As to the kind of experiment: Cell viability assay (MTT), MKN28 gastric cancer cells. As to conditions: 48 hr treatment, FIG. 4B. As to the method:
as §1
MKN28 human gastric cancer cell line was provided by Dr. Tatematsu (Nagoya University, Japan), and cultured in RPMI-1640 medium.
as §2, §3

Assay [3] concerns human malignant pleural mesothelioma cell lines NCI-H28, NCI-H2052, NCI-H2452, MSTO-211H. The assay is described as follows: Cell viability assay (MTT), human malignant pleural mesothelioma cell lines. The conditions noted are these: 48 hr treatment; for cell death induction (MTT intensity relative to cells free of drug treatment): FIG. 2 / FIG. 3. How it is done:
FIG. 2 is a graph showing that diDCP-LA-PI and diDCP-LA-PIe induce cell death of human malignant pleural mesothelioma in a concentration-dependent manner. The cells were treated with a given concentration of diDCP-LA-PI or diDCP-LA-PIe for 48 hr, and subjected to MTT assay.
FIG. 3 is a graph showing that DO-PI and DP-PI induce the same level of cell death of human malignant pleural mesothelioma in a concentration-dependent manner. The cells were treated with a given concentration of DO-PI or DP-PI for 48 hr, and subjected to MTT assay.
NCI-H28, NCI-H2052, NCI-H2452, and MSTO-211H which are cell lines of human malignant pleural mesothelioma were used.
These cells were purchased from American Type Culture Collection (Manassas, Va., USA). The cells were cultured in Roswell Park Memorial Institute (RPMI)-1640 medium added with 0.003% (w/v) L-glutamine.
as §2, §3

Assay [4] concerns Lu-65 human lung cancer cell line. The assay is described as follows: Cell viability assay (MTT), Lu-65 lung cancer cells. The conditions noted are these: human lung cancer cell (Lu65), 48 hr treatment, FIG. 4A. As to the method:
as §1
Lu-65 human lung cancer cell line was purchased from Health Science Research Resources Bank (Osaka, Japan), and cultured in RPMI-1640 medium.
as §2, §3

“1,2-O-bis-[8-{2-(2-pentyl-cyclopropylmethyl)-cyclopropyl}-octanoyl]-sn-glycerol-3-phosphatidyl-D-inositol [diDCP-LA-PI]”: the “cell death induction (MTT intensity relative to cells free of drug treatment)” value in assay [1] is “induce cell death of human lung cancer, gastric cancer and breast cancer in a concentration dependent manner”; in assay [2], “induce cell death of human lung cancer, gastric cancer and breast cancer in a concentration dependent manner”; in assay [3], “induce cell death of human malignant pleural mesothelioma cells in a concentration dependent manner”; in assay [4], “induce cell death of human lung cancer, gastric cancer and breast cancer in a concentration dependent manner”.

Turning to “1,2-O-bis-[8-{2-(2-pentyl-cyclopropylmethyl)-cyclopropyl}-octanoyl]-sn-glycerol-3-phosphatidyl-L-1-inositol [diDCP-LA-PIe]”, the “cell death induction (MTT intensity relative to cells free of drug treatment)” value in assay [1] was “induce cell death of human lung cancer, gastric cancer and breast cancer in a concentration dependent manner”; in assay [2], “induce cell death of human lung cancer, gastric cancer and breast cancer in a concentration dependent manner”; in assay [3] it was “induce cell death of human malignant pleural mesothelioma cells in a concentration dependent manner”; in assay [4], “induce cell death of human lung cancer, gastric cancer and breast cancer in a concentration dependent manner”. For the same compound, the “effectiveness of cell death induction compared with diDCP-LA-PI” value in assay [1] is given as “more effective”; in assay [2], “more effective”; in assay [3] (human malignant pleural mesothelioma cells, FIG. 2), “more effective”; in assay [4], “more effective”.

Turning to `CCCCCCCC/C=C\CCCCCCCC(=O)OC[C@H](COP(=O)(O)OC1C(O)C(O)C(O)[C@@H](O)C1O)OC(=O)CCCCCCC/C=C\CCCCCCCC` (some centres unmarked) [DO-PI, 1,2-dioleoyl-sn-glycerol-3-phospho-(1′-myo-inositol)], the “cell death induction (MTT intensity relative to cells free of drug treatment)” value in assay [3] is given as “induce the same level of cell death of human malignant pleural mesothelioma cells in a concentration dependent manner”.

Regarding `CCCCCCCCCCCCCCCC(=O)OC[C@H](COP(=O)(O)O[C@@H]1[C@H](O)[C@H](O)[C@@H](O)[C@H](O)[C@H]1O)OC(=O)CCCCCCCCCCCCCCC` [DP-PI, 1,2-dipalmitoyl-sn-glycerol-3-phospho-(1′-myo-inositol)], the “cell death induction (MTT intensity relative to cells free of drug treatment)” value in assay [3] was “induce the same level of cell death of human malignant pleural mesothelioma cells in a concentration dependent manner”.

(Values after patent US20160120888A1, “ANTICANCER DRUG” (KTN BIOTEC, INC., priority 2013, published 2016).)
